Entries after “also recorded” stand apart in the source; their conditions may differ.
Key:
Assay type in all cases: cell-based
[1] = test system: infant fecal flora of the simulated distal colon (SHIME model); assay: SHIME fermentation with each HMO in simulated distal colon environment; conditions: for decrease ratio of butyric acid, Day 14 versus Day 1, compared to control without HMO: 14 days of fermentation; for Butyric acid, Log2 (day 14/day 1): HMO 2 g/L in feed, 14 days of HMO intervention, biological replicate 1
Source text: (§1) Using a SHIME device (see the schematic diagram in FIG. 1A), fresh fecal samples containing bacteria flora were obtained from a healthy infant naturally delivered and exclusively breastfed, and inoculated into containers corresponding to the proximal colon and distal colon. Food material was fed to the stomach/small intestine end of the device three times a day for two weeks to support the growth and colonization of the flora in the proximal colon and distal colon. Here, the food material that was digested by the small intestine and entered the colon was prepared on the basis of the standard food material provided by ProDigest, the manufacturer of the SHIME device, with adjustment to the ratio of lactose, casein and whey protein; the standard food material was composed of: pectin (1 g/L), glucose (1 g/L), starch (1 g/L), cellobiose (1 g/L), proteose peptone (2 g/L), mucin (6 g/L)), lactose (2.1 g/L), casein (0.2 g/L), whey-lactalbumin (2.7 g/L), L-cysteine hydrochloride (0.2 g/L). The ratio of lactose, casein and whey protein in the food materials in each experiment of the present disclosure was adjusted to about 12:1:15, with reference to Le Blay et al. (2010), and stable and balanced nutrients were maintained, so as to simulate the food composition to which the infant's intestinal microecology may be exposed during regular breastfeeding or infant formula feeding. After the infant fecal flora was stabilized in the SHIME model for two weeks, the proximal colon and distal colon were sampled, aliquoted in glycerol to form a stock solution, and stored under anaerobic conditions at −80° C.
The infant fecal flora sampled and stored as in “Fecal inoculation and culture in SHIME device” was inoculated into the SLIME model to investigate the fermentation of HMOs in the SHIME device. Two batches of experiments were done sequentially, and three sample groups (or control) were simultaneously done in each batch of experiments. In three sets of experimental devices, the devices simulating the proximal colon and distal colon were inoculated separately (see the schematic diagram of FIG. 1B). Food material was fed three times a day, and after 4 days of incubation, an HMO was blended into the feed food material (no HMO was added to the control group). 280 mg of HMO (at a concentration of 2 g/L) and 60 mL of pancreatic juice were added into 140 mL of a stock solution for each food material. Only one experiment was performed for each set of HMO and control, so the biological replicate was 1. SHIME fermentation continued until Day 14 after the HMO intervention, and samples were taken for detection at different time periods during the fermentation period.
(§2) A two-tailed, paired t-test was performed on the data results. When there is a significant difference between two groups, and p<0.05, it is indicated with an asterisk *. Two asterisks ** indicate p<0.01. Three asterisks *** indicate p<0.001.

[2] = test system: infant fecal flora of the simulated distal colon; assay: Small batch fermentation with each HMO in simulated distal colon environment; conditions: for formic acid produced, distal colon / acetic acid produced, distal colon / butyric acid produced, distal colon / propionic acid produced, distal colon: 48 hours of fermentation; for formic acid produced, distal colon: FIG. 13; for acetic acid produced, distal colon: FIG. 14; for butyric acid produced, distal colon: FIG. 16; for total short chain fatty acids produced, distal colon: FIG. 12; for production of isobutyric acid, distal colon / production of isovaleric acid, distal colon: small batch fermentation; for production of isobutyric acid, distal colon: FIG. 6A; for pH changes of the distal colon over time: starting pH 6.5, FIG. 3B; for production of isovaleric acid, distal colon: FIG. 6B; for propionic acid produced, distal colon: FIG. 15
Source text: as §1
After the infant flora was inoculated into the SHIME model and stably grown for 2 weeks (as described in the aforementioned “Fecal inoculation and culture in SHIME device”), 10 mL of the flora in the proximal colon and distal colon was taken and respectively transferred to fermentation flasks under anaerobic conditions for small batch fermentation. On the basis of 43 mL basal buffer (for adjusting pH and simulating the corresponding colonic environment), each fermentation flask also contained 20 mL PBS buffer (for dissolving and introducing the HMO test substance) supplemented with different amounts of HMOs, so that the final concentration of each HMO was 0.02 g/L, 0.2 g/L, or 2 g/L, the pH of the proximal colon was set to 5.6, and the pH of the distal colon was set to 6.5. The flasks were incubated at 37° C. with shaking. During incubation, the pressure was measured at 0, 6 hours, 24 hours and 48 hours, followed by sampling for detection of pH and short chain fatty acids. Measurements were repeated three times.
During the HMO intervention, the gas production in each group was compared by measuring changes in pressure. Short chain fatty acid analysis including isobutyric acid, isovaleric acid, butyric acid, propionic acid, acetic acid, and formic acid, were analyzed by HPLC.
as §2

[3] = test system: infant fecal flora of the simulated proximal colon; assay: Small batch fermentation with each HMO in simulated proximal colon environment; conditions: for formic acid produced, proximal colon: FIG. 8; for acetic acid produced, proximal colon: FIG. 9; for total short chain fatty acids produced, proximal colon: FIG. 7; for pressure changes (gas production) in the proximal colon: FIG. 4A
Source text: Using a SHIME device (see the schematic diagram in FIG. 1A), fresh fecal samples containing bacteria flora were obtained from a healthy infant naturally delivered and exclusively breastfed, and inoculated into containers corresponding to the proximal colon and distal colon. Food material was fed to the stomach/small intestine end of the device three times a day for two weeks to support the growth and colonization of the flora in the proximal colon and distal colon. Here, the food material that was digested by the small intestine and entered the colon was prepared on the basis of the standard food material provided by ProDigest, the manufacturer of the SHIME device, with adjustment to the ratio of lactose, casein and whey protein; the standard food material was composed of: pectin (1 g/L), glucose (1 g/L), starch (1 g/L), cellobiose (1 g/L), proteose peptone (2 g/L), mucin (6 g/L)), lactose (2.1 g/L), casein (0.2 g/L), whey-lactalbumin (2.7 g/L), L-cysteine hydrochloride (0.2 g/L). The ratio of lactose, casein and whey protein in the food materials in each experiment of the present disclosure was adjusted to about 12:1:15, with reference to Le Blay et al. (2010), and stable and balanced nutrients were maintained, so as to simulate the food composition to which the infant's intestinal microecology may be exposed during regular breastfeeding or infant formula feeding. After the infant fecal flora was stabilized in the SHIME model for two weeks, the proximal colon and distal colon were sampled, aliquoted in glycerol to form a stock solution, and stored under anaerobic conditions at −80° C. After the infant flora was inoculated into the SHIME model and stably grown for 2 weeks (as described in the aforementioned “Fecal inoculation and culture in SHIME device”), 10 mL of the flora in the proximal colon and distal colon was taken and respectively transferred to fermentation flasks under anaerobic conditions for small batch fermentation. On the basis of 43 mL basal buffer (for adjusting pH and simulating the corresponding colonic environment), each fermentation flask also contained 20 mL PBS buffer (for dissolving and introducing the HMO test substance) supplemented with different amounts of HMOs, so that the final concentration of each HMO was 0.02 g/L, 0.2 g/L, or 2 g/L, the pH of the proximal colon was set to 5.6, and the pH of the distal colon was set to 6.5. The flasks were incubated at 37° C. with shaking. During incubation, the pressure was measured at 0, 6 hours, 24 hours and 48 hours, followed by sampling for detection of pH and short chain fatty acids. Measurements were repeated three times. During the HMO intervention, the gas production in each group was compared by measuring changes in pressure. Short chain fatty acid analysis including isobutyric acid, isovaleric acid, butyric acid, propionic acid, acetic acid, and formic acid, were analyzed by HPLC. A two-tailed, paired t-test was performed on the data results. When there is a significant difference between two groups, and p<0.05, it is indicated with an asterisk *. Two asterisks ** indicate p<0.01. Three asterisks *** indicate p<0.001.

[4] = HMO 2 g/L, 48 hours of fermentation

Compound	decrease ratio of butyric acid, Day 14 versus Day 1, compared to control without HMO [1]	Butyric acid, Log2 (day 14/day 1) [1]	formic acid produced, distal colon [2]	acetic acid produced, distal colon [2]	butyric acid produced, distal colon [2]	total short chain fatty acids produced, distal colon ([2]; HMO 2 g/L, 24 hours)	formic acid produced, proximal colon ([3]; 48 hours of fermentation)	acetic acid produced, proximal colon ([3]; 48 hours of fermentation)	propionic acid produced, proximal colon ([3]; 48 hours of fermentation, FIG. 10)	butyric acid produced, proximal colon ([3]; 48 hours of fermentation, FIG. 11)	total short chain fatty acids produced, proximal colon [3, 4]	pressure changes (gas production) in the proximal colon ([3]; HMO 2 g/L)	total short chain fatty acids produced, distal colon ([2]; HMO 0.02 g/L, 6 hours)	pH changes over time ([2]; HMO 0.2 g/L, colon section not given)	production of isobutyric acid, distal colon [2]	pressure changes (gas production) in the proximal colon ([3]; HMO 0.2 g/L)	pH changes of the distal colon over time ([2]; HMO 2 g/L)	production of isovaleric acid, distal colon [2]	propionic acid produced, distal colon [2]	total short chain fatty acids produced, proximal colon ([3]; HMO 2 g/L, 24 hours of fermentation)
CC(=O)N[C@H]1[C@H]([C@H](O)[C@H](O)CO)O[C@@](OC[C@H]2O[C@@H](O[C@H]3[C@H](O)[C@@H](O)[C@H](O)O[C@@H]3CO)[C@H](O)[C@@H](O)[C@H]2O)(C(=O)O)C[C@@H]1O [6-SL, 6′-sialyl lactose]	good improving effect compared to the control	−0.66	more significant	more significant	significantly increased	relatively more short chain fatty acids	significantly increased; also recorded: more significant	significantly increased	significantly increased	significantly increase	significantly more SCFA	higher pressure								
CC(=O)N[C@H]1[C@H](O[C@H]2[C@@H](O)[C@@H](CO)O[C@@H](O[C@H]3[C@H](O)[C@@H](O)C(O)O[C@@H]3CO)[C@@H]2O)O[C@H](CO)[C@@H](O)[C@@H]1O[C@@H]1O[C@H](CO)[C@H](O)[C@H](O)[C@H]1O (stereo partly drawn) [LNT, Lacto-N-tetraose]	good improving effect compared to the control	−0.70	more significant	more significant									relatively more short chain fatty acids	tends to better lower the pH	significantly reduce	tends to produce gas better				
2′-fucosyllactose [2′-FL]	good improving effect compared to the control	−0.67													significantly reduce		tend to significantly lower the pH	most potent; also recorded: significantly reduce		
3-fucosyllactose [3-FL]		−0.33	more significant			relatively more short chain fatty acids									significantly reduce		tend to significantly lower the pH	significantly reduce	more significant	
CC(=O)N[C@H]1[C@H]([C@H](O)[C@H](O)CO)O[C@@](O[C@H]2[C@@H](O)[C@@H](CO)O[C@@H](O[C@H]3[C@H](O)[C@@H](O)C(O)O[C@@H]3CO)[C@@H]2O)(C(=O)O)C[C@@H]1O (stereo partly drawn) [3-SL, 3′-sialyl lactose]	the smallest	−0.13	more significant	more significant	significantly increased		significantly increased	significantly increased; also recorded: more significant			significantly more SCFA	higher pressure	relatively more short chain fatty acids		significantly reduce				more significant	produces more SCFA

Source: patent publication US20230285431A1, “Human Milk Oligosaccharide for Improving Health of Intestinal Microenvironment and Use Thereof” (Inner Mongolia Yili Industrial Group Co., Ltd., priority 2020, published 2023)
